How the values were obtained:
[1] = target: T1, human B1 bradykinin receptor (Homo sapiens, UniProt P46663); assay: 3H-DALK binding to membranes from transgenic rat brain tissue
T1 construct: from tissue; host or cells: whole-brain membranes of transgenic Sprague-Dawley rats carrying Construct #1
T1 sequence (P46663 1-353): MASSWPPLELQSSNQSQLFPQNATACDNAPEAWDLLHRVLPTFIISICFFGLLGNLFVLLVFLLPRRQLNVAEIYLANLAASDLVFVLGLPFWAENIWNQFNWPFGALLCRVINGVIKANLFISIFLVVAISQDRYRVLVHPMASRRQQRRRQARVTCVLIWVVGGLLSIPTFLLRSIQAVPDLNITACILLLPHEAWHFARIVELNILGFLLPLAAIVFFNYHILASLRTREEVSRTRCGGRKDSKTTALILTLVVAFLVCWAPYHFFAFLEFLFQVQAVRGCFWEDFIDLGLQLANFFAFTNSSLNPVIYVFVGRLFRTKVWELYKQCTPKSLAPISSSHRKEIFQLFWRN
Description: Also important in these assays is the low expression level of endogenous B1 receptor in neuronal tissue. Briefly, transgenic animals from line 0004, 0014, and 0015 (all females) were decapitated following anesthesia and the whole brain was removed, bisected sagitally and the entire 1⁄2 brain weighed. Weights were as follows: line 0004 (813 mg), line 0014 (851 mg), and 0015 (843 mg). The brain tissue was homogenized with a Polytron in ice cold 50 mM Tris-HCl, 1 mM EDTA, 1 mM o-phenanthroline, pH 7.4. The homogenate was centrifuged at 50,000×g for 20 minutes. The pellet was resuspended and homogenized a second time in Tris buffer, and the centrifugation step was repeated. The final pellet was resuspended in assay buffer (20 mM HEPES, 120 mM NaCl, 5 mM KCl, 1 mM o-phenanthroline, 0.2 uM of […] form and active metabolite of […] added to inhibit angiotensin converting enzyme), 100 μg/ml bacitracin, 3 μM amastatin, 1 μM phosphoramidon, 0.1% BSA, pH 7.4. The assay was carried out in a 0.5 ml volume at room temperature for sixty minutes with 10 mg wet weight tissue/tube. Total protein was determined using a Bio Rad DC assay kit. […] FIG. 9A, 9B and 9C show measurements of the amount of total, nonspecific and specific binding of ^3H-DALK to transgenic rat brain tissue which expresses human B1 bradykinin receptor. […] In contrast, no B1 receptor is detected in the brains of non-transgenic rats. The Ki values determined for three standard lead compounds in Line 0004 are very similar to those obtained at the cloned hB1 receptor expressed in CHO cells. Therefore, expression of the human B1 bradykinin receptor in Line 0004 has the properties expected for the human B1 receptor.

[2] = target: T2, endogenous B1 receptor (Rattus norvegicus, UniProt P97583); assay: Autoradiography of [3H]DALK binding in brain and spinal cord sections of non-transgenic rats; conditions: non-transgenic control rats, 0.3 nM radioligand
T2 construct: DALK in non-transgenic control rats; from tissue; host or cells: brain and spinal cord sections (and whole-brain homogenate) of non-transgenic Sprague-Dawley rats
T2 sequence (P97583 1-337): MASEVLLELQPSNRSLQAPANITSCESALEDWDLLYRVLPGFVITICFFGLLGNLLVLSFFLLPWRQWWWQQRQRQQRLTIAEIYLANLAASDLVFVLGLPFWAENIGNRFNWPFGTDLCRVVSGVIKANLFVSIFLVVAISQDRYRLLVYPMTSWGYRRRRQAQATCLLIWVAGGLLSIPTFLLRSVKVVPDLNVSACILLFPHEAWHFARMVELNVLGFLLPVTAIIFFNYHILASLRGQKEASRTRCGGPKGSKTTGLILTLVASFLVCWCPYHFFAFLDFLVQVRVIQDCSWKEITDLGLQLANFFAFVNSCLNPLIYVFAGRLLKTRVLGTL

affinity for the human B1 receptor relative to the rat B1 receptor [1]: greater affinity
selectivity ([1]; printed as 'approximately 40 fold selective for this ligand'): approximately 40 fold
expression (specific binding of 3H-DALK, saturation binding) ([1]; transgenic rat Line 0004 brain membranes, FIG. 9A): 40 fmol/mg protein
expression (specific binding of 3H-DALK, saturation binding) ([1]; transgenic rat Line 0014 brain membranes, FIG. 9B): 4 fmol/mg protein
expression (specific binding of 3H-DALK, saturation binding) ([1]; transgenic rat Line 0015 brain membranes, FIG. 9C): 7 fmol/mg protein
binding site in transgenic rats expressing the human B1 receptor ([1]; whole brain homogenate assay or receptor autoradiography of brain slices): readily detectable
specific binding [2]: did not show any specific binding signal
specific binding ([2]; listed as [H-3] DALK): no detectable specific binding
Substance: [des-Arg^10, Leu^9]-Kallidin [^3H-DALK]

— patent US20070011757A1, “Transgenic rodents as animal models for modulation of B1 bradykinin receptor protein” (priority 2001, published 2007)
